Laboratory results from patent publication US20070298997A1, “Compounds useful in treating diabetic microvascular complications and age-related macular degeneration” (priority 2003, published 2007).

How the values were obtained:
[1] = test system: Retinal capillary endothelial cells (RCEC); test: Quantification of viable cells by MTT assay, RCEC; format: cell-based, bovine; conditions: 5 μM, 48 h
Procedure: FIG. 2 illustrates the specific inhibition of endothelial cell proliferation by recombinant kallistatin. RCEC were treated with recombinant kallistatin at concentrations of 5,10, 20, 40, 80 and 160 nM for 72 h. Viable cells were quantified by MTT assay. […] This effect appeared to be kallistatin concentration-dependent, with an apparent IC50 of 50 nM (FIG. 2) which is similar to that of K5, a known angiogenic inhibitor (Zhang et al., 2001).
FIG. 7 illustrates the effects of B1 and B2 kinin receptor antagonists on RCEC. In order to test whether the anti-angiogenic activity of kallistatin is via reducing kinin production by inhibiting kallikrein activity, RCEC were treated with 5 μM des-Arg^9-[Leu^8]-bradykinin, a specific antagonist of the B1 kinin receptor or Hoe-140, a specific B2 kinin receptor antagonist, in the presence or absence of 40 nM kallistatin for 48 h, and viable cells were quantified by MTT assay.
Quantification of viable cells: Cells were plated in 12-well plates in triplicate and cultured in the growth medium until they reached 60-70% of confluency. The culture medium was replaced with a medium containing 1% fetal bovine serum (FBS). Recombinant kallistatin was added to the cover medium to various concentrations and incubated with the cells for 72 h. The viable cells were quantified by the MTT (3-[4,5-dimethylthiazol-2-yl]-2,5-dephenyl tetrazolium bromid, Roche, Mannheim, Germany) assay following a protocol recommended by the manufacturer. The effect of kallistatin on viable cell number was analyzed using Student's t test.

B1 receptor = conditions: at 1 mM; cited from earlier work

| Substance | viable cells, % of the control ([1]; P<0.05) | block of bradykinin-induced endothelial cell proliferation (B1 receptor) | inhibition of RCEC (viable cells) ([1]; P>0.05) |
| --- | --- | --- | --- |
| des-Arg^9-[Leu^8]-bradykinin [reference compound] | 85 % of the control | completely block bradykinin-induced endothelial cell proliferation | – |
| Hoe-140 [reference compound] | – | – | no significant inhibition |
